Data: US11390609B2, “Rho-associated protein kinase inhibitor, pharmaceutical composition comprising same, and preparation method and use thereof” (BEIJING TIDE PHARMACEUTICAL CO., LTD., priority 2017, dated 2022)

Key:
ROCK2 = ROCK2 (Homo sapiens, UniProt O75116); test: ROCK2 kinase IC50 assay (CISBIO HTRF KinEASE-STK S2 kit); assay type: biochemical; conditions: incubated at room temperature for 2 hours
Procedure: The kinase IC50 was determined by a commercialized CISBIO kinase detection kit, HTRF KinEASE-STK S2 kit (62ST2PEC). ROCK2 (01-119) employed in the reaction was purchased from Carna Biosciences.
Before the assay, the following working solutions as needed were formulated with corresponding reagents according to the instruction of the kinase detection kit: 1×kinase buffer, 5×STK-52 substrate working solution (1.5 μM) and 5×ATP working solution (1.5 μM), 5×ROCK2 kinase working solution, 4×Streptavidin-XL665 working solution, and 4×STK-Ab-Cryptate 2 detection solution. Then the assay was performed according to the following procedure.
A solution of a compound at a concentration of 10000 nM was prepared with the 1×kinase buffer containing 2.5% DMSO. Gradient dilution of the solution of the compound was performed with the kinase buffer containing DMSO, so as to obtain solutions of a test compound at 9 different concentrations. In addition to wells of test compounds, a positive well (containing all the reagents except the compound) and a negative well (containing all the reagents except the test compound and kinase) were set. Except for the control wells (positive and negative wells), a solution of a test compound (4 μL) was added to each of the reaction wells, and a solution of 2.5% DMSO was added to the control wells. Then the substrate ([…], 2 μL. 5×STK-S2 substrate working solution) was added to each of the reaction wells. The 5×ROCK2 kinase working solution (2 μL, containing 1.4 ng ROCK2 kinase) was added to each of the reaction wells except for the negative well, the volume of which was made up with the 1×kinase buffer (2 μL). The 5×ATP working solution (2 μL) was added to each of the reaction wells, and the mixtures were incubated at room temperature for 2 hours. After the kinase reaction was complete, the 4×Streptavidin-XL665 working solution was added to each of the reaction wells, the solutions were mixed, followed by immediate addition of the 4×STK-Ab-Cryptate 2 detection solution (5 μL), and the mixtures were incubated at room temperature for 1 hour. The fluorescence signal was read on ENVISION (Perkinelmer) (excitation wavelength: 320 nm, and emission wavelength: 665 nm and 615 nm). The inhibitory rate in each well was calculated based on the fluorescence intensity value: ER (Emission Ratio)=(fluorescence intensity at 665 nm/fluorescence intensity at 615 nm); inhibitory rate=(ERpositive−ERtest compound)/(ERpositive−ERnegative)*100%. Curves were plotted and fitted to obtain the median inhibitory concentration (IC50) of each teat compound with the PRISM 5.0 software.

ROCK1 = ROCK1 (Homo sapiens (Human), UniProt Q13464); test: ROCK1 kinase IC50 assay (biological test method similar to the ROCK2 assay); assay type: biochemical
Method in brief: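 Compound dilution series (9 concentrations, top solution 10000 nM, DMSO-containing buffer) incubated 2 h at room temperature with kinase, STK-S2 substrate and ATP (5× working solutions of 1.5 µM each). Phosphorylation detected by HTRF (665/615 nm emission ratio) after 1 h; inhibition relative to full-reaction and kinase-free wells, fitted for IC50.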

ROCK1, sequence (Q13464 whole entry, species assumed): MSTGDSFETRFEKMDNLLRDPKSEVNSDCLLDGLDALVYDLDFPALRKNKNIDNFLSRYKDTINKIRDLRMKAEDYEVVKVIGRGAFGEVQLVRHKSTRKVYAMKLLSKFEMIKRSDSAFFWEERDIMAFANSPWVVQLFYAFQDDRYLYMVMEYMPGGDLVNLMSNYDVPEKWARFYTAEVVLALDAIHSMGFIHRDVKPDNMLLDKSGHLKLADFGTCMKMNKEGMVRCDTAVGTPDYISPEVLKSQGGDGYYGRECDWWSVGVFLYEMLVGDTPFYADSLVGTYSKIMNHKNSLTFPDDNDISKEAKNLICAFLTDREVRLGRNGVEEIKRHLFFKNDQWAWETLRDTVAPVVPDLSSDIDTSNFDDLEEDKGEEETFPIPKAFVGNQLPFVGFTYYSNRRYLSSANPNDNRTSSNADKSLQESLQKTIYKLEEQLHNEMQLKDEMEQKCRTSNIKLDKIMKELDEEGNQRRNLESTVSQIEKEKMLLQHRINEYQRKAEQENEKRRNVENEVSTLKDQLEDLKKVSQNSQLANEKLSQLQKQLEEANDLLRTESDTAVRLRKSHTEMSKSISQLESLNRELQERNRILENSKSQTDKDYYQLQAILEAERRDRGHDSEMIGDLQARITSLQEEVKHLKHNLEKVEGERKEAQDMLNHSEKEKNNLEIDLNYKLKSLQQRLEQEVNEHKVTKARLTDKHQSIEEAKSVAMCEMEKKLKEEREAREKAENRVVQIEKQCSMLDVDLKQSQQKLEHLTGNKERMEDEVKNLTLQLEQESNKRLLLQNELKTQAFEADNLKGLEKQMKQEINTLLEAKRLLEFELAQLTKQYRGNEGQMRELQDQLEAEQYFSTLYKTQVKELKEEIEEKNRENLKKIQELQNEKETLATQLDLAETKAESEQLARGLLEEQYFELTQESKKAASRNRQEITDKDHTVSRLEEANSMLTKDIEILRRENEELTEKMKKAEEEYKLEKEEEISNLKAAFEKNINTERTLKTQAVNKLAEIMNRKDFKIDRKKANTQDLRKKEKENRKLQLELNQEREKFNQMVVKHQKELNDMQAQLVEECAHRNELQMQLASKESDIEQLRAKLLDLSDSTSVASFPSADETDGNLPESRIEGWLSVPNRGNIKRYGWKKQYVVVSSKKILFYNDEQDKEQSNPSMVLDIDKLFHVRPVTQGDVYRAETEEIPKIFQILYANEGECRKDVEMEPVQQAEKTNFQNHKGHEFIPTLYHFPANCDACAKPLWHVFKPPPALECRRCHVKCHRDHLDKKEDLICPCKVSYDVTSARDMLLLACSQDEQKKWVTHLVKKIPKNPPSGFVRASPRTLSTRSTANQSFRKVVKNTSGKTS

IC50 (ROCK2) [nM] | IC50 (ROCK1) [nM] | Structure (SMILES)
165 | > 10000 | Cn1c(C(=O)N2CC(F)(F)C2)cc2ccc(-c3nc(Nc4ccc(-c5cn[nH]c5)cc4)c4ccccc4n3)cc21 [TDI01918, (6-(4-((4-(1H-pyrazol-4-yl)phenyl)amino)quinazolin-2-yl)-1-methyl-1H-indol-2-yl)(3,3-difluoroazetidin-1-yl)methanone]
5 | 89 | O=C(NC1CCCN(c2ccncc2)C1)c1cc2ccc(-c3nccc(Nc4ccc5[nH]ncc5c4)n3)cc2[nH]1 (stereo not drawn) [TDI01840, 6-(4-((1H-indazol-5-yl)amino)-pyrimidin-2-yl)-N-(1-(pyridin-4-yl)piperidin-3-yl)-1H-indole-2-carboxamide]
18 | 456 | O=C(NC1CCCN(C2CCOCC2)C1)c1cc2ccc(-c3nccc(Nc4ccc5[nH]ncc5c4)n3)cc2[nH]1 (stereo not drawn) [TDI01390, 6-(4-((1H-indazol-5-yl)amino)-pyrimidin-2-yl)-N-(1-(tetrahydro-2H-pyran-4-yl)piperidin-3-yl)-1H-indole-2-carboxamide]
8 | 139 | O=C(NC1CCCN(c2ccncc2)C1)c1cc2ccc(-c3nccc(Nc4ccc(-c5cn[nH]c5)cc4)n3)cc2[nH]1 (stereo not drawn) [TDI01882, 6-(4-((4-(1H-pyrazol-4-yl)phenyl)-amino)-pyrimidin-2-yl)-N-(1-(pyridin-4-yl)piperidin-3-yl)-1H-indole-2-carboxamide]
140 | 4530 | CC1(C#N)CN(C(=O)c2cc3ccc(-c4nccc(Nc5ccc(-c6cn[nH]c6)cc5)n4)cc3[nH]2)C1 [TDI01461, 1-(6-(4-((4-(1H-pyrazol-4-yl)phenyl)amino)pyrimidin-2-yl)-1H-indole-2-carbonyl)-3-methylazetidine-3-carbonitrile]
219 | > 10000 | O=C(OC1CC(F)(F)C1)N1CCc2cc(-c3nccc(Nc4ccc(-c5cn[nH]c5)cc4)n3)ccc2C1 [TDI01621, 3,3-difluorocyclobutyl 6-(4-((4-(1H-pyrazol-4-yl)phenyl)amino)pyrimidin-2-yl)-3,4-dihydroisoquinoline-2(1H)-carboxylate]
147 | > 10000 | c1cc(Nc2ccc(-c3cn[nH]c3)nc2)nc(-c2ccc3cc(-c4nccs4)[nH]c3c2)n1 [TDI01940, N-(6-(1H-pyrazol-4-yl)pyridin-3-yl)-2-(2-(thiazol-2-yl)-1H-indol-6-yl)pyrimidin-4-amine]
31 | 1730 | O=C(OC1CCNC1)N1Cc2ccc(-c3nccc(Nc4ccc(-c5cn[nH]c5)cc4)n3)cc2C1 (stereo not drawn) [TDI01551, pyrrolidin-3-yl 5-(4-((4-(1H-pyrazol-4-yl)phenyl)amino)pyrimidin-2-yl)isoindoline-2-carboxylate]
26 | 1550 | O=C(C1CC2(CCNCC2)C1)N1Cc2ccc(-c3nccc(Nc4ccc(-c5cn[nH]c5)cc4)n3)cc2C1 [TDI01546, (5-(4-((4-(1H-pyrazol-4-yl)phenyl)amino)pyrimidin-2-yl)isoindolin-2-yl)(7-azaspiro[3.5]nonan-2-yl)methanone]
395 | 4890 | CC(NC(=O)c1cc2ccc(-c3nccc(Nc4ccc(-c5cn[nH]c5)cc4)n3)cc2n1C)C(F)(F)F (stereo not drawn) [TDI01457, 6-(4-((4-(1H-pyrazol-4-yl)phenyl)amino)pyrimidin-2-yl)-1-methyl-N-(1,1,1-trifluoropropan-2-yl)-1H-indole-2-carboxamide]
167 | > 10000 | COc1cc(Nc2ccnc(-c3ccc4cc(C(=O)N(C)C)[nH]c4c3)n2)ccc1-c1cn[nH]c1 [TDI01832, 6-(4-((3-methoxy-4-(1H-pyrazol-4-yl)phenyl)ami-no)pyrimidin-2-yl)-N, N-dimethyl-1H-indole-2-carboxamide]
205 | > 10000 | O=C(C1CC(O)C1)N1Cc2ccc(-c3nccc(Nc4ccc(-c5cn[nH]c5)cc4)n3)cc2C1 (stereo not drawn) [TDI01561, (5-(4-((4-(1H-pyrazol-4-yl)phenyl)amino)pyrimidin-2-yl)isoindolin-2-yl)(3-hydroxycyclobutyl) methanone]
269 | 7420 | Cn1c(C(=O)N2CCC3(C2)CC3(F)F)cc2ccc(-c3nccc(Nc4ccc(-c5cn[nH]c5)cc4)n3)cc21 (stereo not drawn) [TDI01513, (6-(4-{(4-(1H-pyrazol-4-yl)phenyl)amino)pyrimidin-2-yl)-1-methyl-1H-indol-2-yl)(1,1-difluoro-5-azaspiro[2.4]heptan-5-yl)methanone]
129 | > 10000 | O=C(C1CC(F)(F)C1)N1CCc2cc(-c3ncc(F)c(Nc4ccc(-c5cn[nH]c5)cc4)n3)ccc21 [TDI01618A, (5-(4-((4-(1H-pyrazol-4-yl)phenyl)amino)-5-fluoropyrimidin-2-yl)indolin-1-yl)(3,3-difluorocyclobutyl) methanone]
258 | > 10000 | CN1CCN(C2CCN(C(=O)c3cc4ccc(-c5nccc(Nc6ccc7[nH]ncc7c6)n5)cc4[nH]3)CC2)CC1 [TDI01319, (6-(4-((1H-indazol-5-yl)amino)-pyrimidin-2-yl)-1H-indol-2-yl)(4-(4-methyl-piperazin-1-yl)piperidin-1-yl)methanone]
113 | 6840 | Cn1c(C(=O)N2CCC(F)(F)C2)cc2ccc(-c3nccc(Nc4ccc(-c5cn[nH]c5)cc4)n3)cc21 [TDI01507, (6-(4-((4-(1H-pyrazol-4-yl)phenyl)amino)pyrimidin-2-yl)-1-methyl-1H-indol-2-yl)(3,3-difluoropyrrolidin-1-yl)methanone]
240 | > 10000 | Cn1c(-n2ccnc2)cc2ccc(-c3nccc(Nc4ccc(-c5cn[nH]c5)cc4)n3)cc21 [TDI01876B, 2-(2-(1H-imidazol-1-yl)-1-methyl-1H-indol-6-yl)-N-(4-(1H-pyrazol-4-yl)phenyl)pyrimidin-4-amine]
6 | > 10000 | COc1cc(Nc2ccnc(-c3ccc4cc(C(=O)N5CC(F)(F)C5)n(C)c4c3)n2)ccc1-c1cn[nH]c1 [TDI01910, (3,3-difluoroazetidin-1-yl)(6-(4-((3-methoxy-4-(1H-pyrazol-4-yl)phenyl)amino)pyrimidin-2-yl)-1-methyl-1H-indol-2-yl)methanone]
242 | > 10000 | CC1(C(=O)N2CCc3ccc(-c4nccc(Nc5ccc(-c6cn[nH]c6)cc5)n4)cc3C2)CC(F)(F)C1 [TDI01676, (7-(4-((4-(1H-pyrazol-4-yl)phenyl)amino)pyrimidin-2-yl)-3,4-dihydroisoquinolin-2(1H)-yl)(3,3-difluoro-1-methylcyclobutyl) methanone]
160 | 4060 | CNC(=O)c1cc2ccc(-c3nc(Nc4ccc5[nH]ncc5c4)c4sccc4n3)cc2[nH]1 [TDI01405, 6-(4-((1H-indazol-5-yl)amino)-thieno[3,2-d]pyrimidin-2-yl)-N-methyl-1H-indole-2-carboxamide]
335 | > 10000 | O=C(c1cc2ccc(-c3nc(Nc4ccc(-c5cn[nH]c5)cc4)c4sccc4n3)cc2s1)N1CC(F)(F)C1 [TDI01525, (6-(4-((4-(1H-pyrazol-4-yl)phenyl)-amino)thieno-[3,2-d]-pyrimidin-2-yl)benzo[b]-thiophen-2-yl)(3,3-difluoro-azetidin-1-yl)methanone]
13 | > 10000 | N#CC1CN(C(=O)c2cc3ccc(-c4nccc(Nc5ccc(-c6cn[nH]c6)cc5)n4)cc3s2)C1 [TDI01500, 1-(6-(4-((4-(1H-pyrazol-4-yl)phenyl)-amino)-pyrimidin-2-yl)benzo[b]-thiophene-2-carbonyl)-azetidine-3-carbonitrile]
137 | > 10000 | O=C(C1CC(F)(F)C1)N1Cc2ccc(-c3nccc(Nc4ccc(-c5cn[nH]c5)cn4)n3)cc2C1 [TDI01979, (5-(4-((5-(1H-pyrazol-4-yl)pyridin-2-yl)amino)pyrimidin-2-yl)isoindolin-2-yl)(3,3-difluorocyclobutyl)methanone]
27 | > 10000 | O=C(OC1CC(F)(F)C1)N1Cc2ccc(-c3ncc(F)c(Nc4ccc5[nH]ncc5c4)n3)cc2C1 [TDI01613, 3,3-difluorocyclobutyl 5-(4-((1H-indazol-5-yl)amino)-5-fluoropyrimidin-2-yl)isoindoline-2-carboxylate]
